# Measured values published in ChEMBL document CHEMBL6127101, “Wee1 inhibitor optimization through deep-learning-driven decision making” (Eur J Med Chem, 2024).
# Experiments:
# [1] = system: NCI-H446; assay: Inhibition of cell viability of human NCI-H446 cells incubated for 72 hrs by Cell Titer-Glo assay; details: NCI-H446, 72 h
# [2] = biological target: Wee1-like protein kinase (Homo sapiens, UniProt P30291); assay: Inhibition of Wee-1 (unknown origin) using Poly-Lys Tyr as substrate incubated for 60 mins in presence of ATP by ADP-Glo Kinase assay
# Wee1-like protein kinase, sequence (P30291 whole entry): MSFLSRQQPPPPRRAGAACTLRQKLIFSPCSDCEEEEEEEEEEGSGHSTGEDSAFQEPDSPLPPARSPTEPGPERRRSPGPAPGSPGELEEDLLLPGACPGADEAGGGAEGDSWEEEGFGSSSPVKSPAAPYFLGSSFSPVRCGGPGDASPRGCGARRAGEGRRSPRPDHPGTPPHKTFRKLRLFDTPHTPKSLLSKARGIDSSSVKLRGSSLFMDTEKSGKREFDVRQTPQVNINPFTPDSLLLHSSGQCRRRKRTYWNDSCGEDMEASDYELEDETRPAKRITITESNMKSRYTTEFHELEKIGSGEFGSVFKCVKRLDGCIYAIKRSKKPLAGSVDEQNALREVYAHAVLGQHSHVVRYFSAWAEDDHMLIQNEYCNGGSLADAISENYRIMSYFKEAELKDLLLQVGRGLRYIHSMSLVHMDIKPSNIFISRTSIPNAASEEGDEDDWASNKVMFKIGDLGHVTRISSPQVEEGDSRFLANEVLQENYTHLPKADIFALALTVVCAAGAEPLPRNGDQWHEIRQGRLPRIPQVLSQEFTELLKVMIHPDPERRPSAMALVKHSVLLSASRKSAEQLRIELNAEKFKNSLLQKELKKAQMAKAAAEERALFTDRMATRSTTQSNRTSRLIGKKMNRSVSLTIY
# [3] = system: WiDr; assay: Inhibition of cell viability of human WiDr cells incubated for 72 hrs by Cell Titer-Glo assay; type: functional, cell-based
# [4] = system: C-33-A; assay: Inhibition of cell viability of human C-33-A cells incubated for 72 hrs by Cell Titer-Glo assay; type: functional, cell-based
# [5] = system: A-427; assay: Inhibition of cell viability of human A-427 cells incubated for 72 hrs by Cell Titer-Glo assay; type: functional, cell-based; details: A-427, 72 h
# [6] = system: OVCAR-3; assay: Inhibition of cell viability of human OVCAR-3 cells incubated for 72 hrs by Cell Titer-Glo assay; type: functional, cell-based; details: OVCAR-3, 72 h
# [7] = system: C-33-A; assay: Inhibition of cell viability of human C-33-A cells incubated for 72 hrs by Cell Titer-Glo assay relative to control; type: functional
SMILES,IC50 [1],IC50 [2],IC50 [6],IC50 [3],IC50 [4],IC50 [5],inhibition (INH) [7]
COc1cc(Nc2ncc(-c3cnco3)c(-c3cnc(N4CC[C@H](O)C4)s3)n2)ccc1N1CCN(C)CC1,1.41 µM,0.0224 µM,1.84 µM,1.47 µM,0.41 µM,0.589 µM,
COc1cc(Nc2ncc(-c3cncs3)c(-c3cnc(N4CC(O)C4)s3)n2)ccc1N1CCN(C)CC1,0.313 µM,0.0037 µM,0.252 µM,0.415 µM,0.105 µM,0.163 µM,
CN1CCN(c2ccc(Nc3ncc(-c4cncs4)c(-c4cnc(N5CC[C@H](O)C5)s4)n3)cc2)CC1,0.54 µM,0.0042 µM,0.43 µM,1.11 µM,0.167 µM,0.362 µM,
COc1cc(Nc2ncc(-c3cncs3)c(-c3cnc(N4CC[C@H](O)C4)s3)n2)ccc1N1CCN(C)CC1,0.417 µM,0.002 µM,0.229 µM,0.538 µM,0.0995 µM,0.152 µM,
CN1CCN(c2ccc(Nc3ncc(-c4cncs4)c(-c4cnc(N5CC[C@H](F)C5)s4)n3)cc2)CC1,0.15 µM,0.0018 µM,0.161 µM,0.203 µM,,0.0982 µM,43.6%
COc1cc(Nc2ncc(-c3cncs3)c(-c3cnc(N4CC[C@H](F)C4)s3)n2)ccc1N1CCN(C)CC1,0.0939 µM,0.002 µM,0.0867 µM,0.085 µM,0.0231 µM,0.0345 µM,
CN1CCN(c2ccc(Nc3ncc(-c4cnco4)c(-c4cnc(N5CC[C@H](F)C5)s4)n3)cc2)CC1,0.562 µM,0.0036 µM,0.414 µM,0.423 µM,0.13 µM,0.211 µM,
CN1CCN(c2ccc(Nc3ncc(-c4cncs4)c(-c4cnc(N5CC(O)C5)s4)n3)cc2)CC1,0.622 µM,0.0036 µM,0.352 µM,1.02 µM,0.277 µM,0.369 µM,
COc1cc(Nc2ncc(-c3cnco3)c(-c3cnc(N4CC[C@H](F)C4)s3)n2)ccc1N1CCN(C)CC1,0.3 µM,0.0025 µM,0.212 µM,0.186 µM,0.0626 µM,0.115 µM,
C=CCn1c(=O)c2cnc(Nc3ccc(N4CCN(C)CC4)cc3)nc2n1-c1ccc2c(n1)[C@@](O)(CC)CC2 [AZENOSERTIB],0.25 µM,0.0013 µM,0.245 µM,0.256 µM,0.382 µM,0.371 µM,

# Continued, in another order:
IC50 [1],IC50 [2],IC50 [6],SMILES,IC50 [3],IC50 [4],IC50 [5],inhibition (INH) [7]
> 10 µM,0.0471 µM,,CC1(N)CCN(c2ccc(Nc3ncc(-c4cnco4)c(-c4cc(N5CC[C@H](N)C5)ns4)n3)cc2)CC1,,,,
1.16 µM,0.0023 µM,0.736 µM,CN1CCN(c2ccc(Nc3ncc(-c4cncs4)c(-c4cc5ccccc5o4)n3)cc2)CC1,0.855 µM,0.458 µM,0.463 µM,
,0.0135 µM,,CC1(N)CCN(c2ccc(Nc3ncc(-c4cnco4)c(-c4cc5ccc(CO)cc5o4)n3)cc2)CC1,,,,
2.04 µM,0.0019 µM,,COc1cc(Nc2ncc(-c3cncs3)c(-c3cc4ccccc4o3)n2)ccc1N1CCN(C)CC1,,,,
0.709 µM,0.0135 µM,1.5 µM,CC1(N)CCN(c2ccc(Nc3ncc(-c4cnco4)c(-c4cc5ccccc5o4)n3)cc2)CC1,,,1.45 µM,
,0.158 µM,,CC1(N)CCN(c2ccc(Nc3ncc(-c4cnco4)c(-c4cccc(C(C)(C)O)c4)n3)cc2)CC1,,,,
,0.0337 µM,,CC1(N)CCN(c2ccc(Nc3ncc(-c4cnco4)c(-c4cnc(N5CC(O)C5)s4)n3)cc2)CC1,,,,
,0.895 µM,,Cc1cc(-c2ccnc(-c3nc(Nc4ccc(N5CCC(C)(N)CC5)cc4)ncc3-c3cnco3)c2)n[nH]1,,,,
,0.0471 µM,,CC1(N)CCN(c2ccc(Nc3ncc(-c4cnco4)c(-c4snc(N5CCC(N)C5)c4F)n3)cc2)CC1 (stereo not given),,,,
1.66 µM,0.0209 µM,2.11 µM,CN1CCN(c2ccc(Nc3ncc(-c4cnco4)c(-c4cnc(N5CC[C@H](O)C5)s4)n3)cc2)CC1,2.17 µM,0.527 µM,0.565 µM,
